These results are taken from patent US20060122153A1, “Antineoplastic ether lipid compounds with modifications at the sn-2 carbon” (priority 2003, published 2006).

One data set concerns MALME-3M. Kind of data set: NCI growth inhibition screen, melanoma panel. As to conditions: for Performance as compared to ET-18-O—CH3: MALME-3M, Melanoma, from GI50s; for activity compared to ET-18-OCH3 (in words): melanoma MALME-3M cell line, NCI screen. The arrangement: key to Performance as compared to ET-18-O—CH3: = means equivalent activity; + means that it appears to be significantly better (i.e., by ˜2x); < means it appears to be less active than ET18OCH3 (˜2x); a combination like =/+ or </+ means that activity is dependent upon the isomer; a combination like =/+ or </+ means that activity is dependent upon the isomer. The data set is classed as cell-based, human. The method, then:
(§1) Candidates deemed suitable for in vivo testing were then synthesized in large scale quantities and some of this material was sent to the NCI's Developmental Therapeutics Program for a battery of growth inhibitory studies against various human tumor cell lines (60 cell lines, 9 different panels). The remainder of the material was used to assess in vivo efficacy using murine tumor models. Additionally, studies were conducted on the lead candidates to discern mechanism of action with particular emphasis on these agents apoptotic ability as measured by caspase 3 activity. The details (materials and methods) for these various assays are described further in the following discussion.
(§2) Ten compounds were also sent to NCI's Drug Discovery Program for screening against numerous human tumor cell lines (9 panels total: renal ovarian, colon, CNS, non-small cell lung, leukemia, breast, melanoma, and prostate). The data are shown in FIGS. 2a-i which also include data regarding D- and L-ET-18-OCH3 (listed as L-EL and D-EL in the figures). Upon examining the data, one is struck by how 1R and 1a′S standout in comparison to the other compounds, especially for the renal, ovarian, colon, and CNS panels.

Another data set deals with B16/F10 melanoma. Kind of data set: B16/F10 murine melanoma (iv./iv.) therapeutic model. The data set is classed as in vivo, mice. Conditions: iv. treatment, lung tumor nodules. The procedure: Female C57/BL6 mice (5/group) were inoculated iv. with 5×10^4 cells in 0.2 mL PBS (day 0). On days 10, 12, 14, 16, & 18 post-tumor inoculation, mice were treated iv. with the ether lipid to be tested, along with ELL-12 (L), D-EL, L-EL or Control (0.9% NaCl). Mice were sacrificed by carbon dioxide inhalation on day 22, lungs were excised, inflated and fixed with 10% Formalin. Lungs were counted “blind” for tumor nodules using a magnifier. The mean number of nodules per treatment group was determined.

In the next data set the test system is HOP-62. Kind of data set: NCI growth inhibition screen, non-small cell lung panel. The class given is cell-based, human. Conditions: for Performance as compared to ET-18-O—CH3: HOP-62, NS cell lung, from GI50s; for activity compared to other compounds (in words): HOP-62 cells, NCI screen. The method, then: as §1, §2
Another data set concerns whole human blood. Kind of data set: Hemolysis assay with whole human blood. As to conditions: whole human blood; for H10: concentration producing 10% hemolysis; for H50: concentration producing 50% hemolysis. The procedure: Venous blood was collected in 10 mL Vacutainer tubes containing EDTA using a 21G needle or larger.
Stock solutions of 20 mM test sample in phosphate buffered saline (PBS) were prepared as follows:
Then 270 uL of whole blood was aliquotted in duplicate mini test tubes using positive displacement pipet. Next, 30 uL of each working stock solution, in duplicate, was added to the whole blood. Next, 30 uL of PBS was added for background control. The samples were capped or sealed with Parafilm and gently mixed. The blood was incubated at 37° C. in gentle rotating water bath for 30 minutes. Final concentration of test sample was 10% of working stock solution.
Total hemolysis samples of 1,% and 10% whole blood samples in deionized water were prepared as follows:
The samples were freeze thawed 3× in liquid nitrogen then wafer bath. The samples were then centrifuged 10 minutes at 1500 RPM. Next, 100 uL of supernatant was transferred to a cuvette and 1 mL deionized water was added. The absorbance was read at 550 nm vs. water blank.
H10 and H50 were calculated by graphing Percent Total Hemolysis vs. Test Sample Concentration. The Percent Total Henolysis=(average o.d of test sample)/(average o.d. of total hemolysis sample)×100

The test system of another data set is SNB-19. Kind of data set: NCI growth inhibition screen, CNS panel. The class given is cell-based, human. The arrangement: key: = means equivalent activity; + means that it appears to be significantly better (i.e., by ˜2x); < means it appears to be less active than ET18OCH3 (˜2x); a combination like =/+ or </+ means that activity is dependent upon the isomer; a combination like =/+ or </+ means that activity is dependent upon the isomer. As to conditions: SNB-19, CNS; from GI50s. The procedure: as §1, §2

The next data set deals with U-251. Kind of data set: NCI growth inhibition screen, CNS panel. The data set is classed as cell-based, human. The arrangement: key: = means equivalent activity; + means that it appears to be significantly better (i.e., by ˜2x); < means it appears to be less active than ET18OCH3 (˜2x); a combination like =/+ or </+ means that activity is dependent upon the isomer; a combination like =/+ or </+ means that activity is dependent upon the isomer. Conditions: U-251, CNS; from GI50s. The procedure:
as §1, §2

The subject of the next data set is SF-295. Kind of data set: NCI growth inhibition screen, CNS panel. The data set is classed as cell-based, human. Set-up: key: = means equivalent activity; + means that it appears to be significantly better (i.e., by ˜2x); < means it appears to be less active than ET18OCH3 (˜2x); a combination like =/+ or </+ means that activity is dependent upon the isomer; a combination like =/+ or </+ means that activity is dependent upon the isomer. Conditions: SF-295, CNS; from GI50s. The procedure: as §1, §2

The test system of the next data set is SF-539. Kind of data set: NCI growth inhibition screen, CNS panel. The class given is cell-based, human. As to conditions: SF-539, CNS; from GI50s. The arrangement: key: = means equivalent activity; + means that it appears to be significantly better (i.e., by ˜2x); < means it appears to be less active than ET18OCH3 (˜2x); a combination like =/+ or </+ means that activity is dependent upon the isomer; a combination like =/+ or </+ means that activity is dependent upon the isomer. The method, then:
as §1, §2

The test system of the next data set is SF-268. Kind of data set: NCI growth inhibition screen, CNS panel. Conditions: SF-268, CNS; from GI50s. The class given is cell-based, human. The arrangement: key: = means equivalent activity; + means that it appears to be significantly better (i.e., by ˜2x); < means it appears to be less active than ET18OCH3 (˜2x); a combination like =/+ or </+ means that activity is dependent upon the isomer; a combination like =/+ or </+ means that activity is dependent upon the isomer. The procedure:
as §1, §2

The test system of another data set is KM12. Kind of data set: NCI growth inhibition screen, colon panel. The data set is classed as cell-based, human. The arrangement: key: = means equivalent activity; + means that it appears to be significantly better (i.e., by ˜2x); < means it appears to be less active than ET18OCH3 (˜2x); a combination like =/+ or </+ means that activity is dependent upon the isomer; a combination like =/+ or </+ means that activity is dependent upon the isomer. As to conditions: from GI50s. The method, then: as §1, §2

Another data set concerns HCT-15. Kind of data set: NCI growth inhibition screen, colon panel. The data set is classed as cell-based, human. Set-up: key: = means equivalent activity; + means that it appears to be significantly better (i.e., by ˜2x); < means it appears to be less active than ET18OCH3 (˜2x); a combination like =/+ or </+ means that activity is dependent upon the isomer; a combination like =/+ or </+ means that activity is dependent upon the isomer. Conditions: HCT-15, Colon; from GI50s. The method, then: as §1, §2

Some results are limits rather than exact numbers.

With `CCCCCCCCCCCCCCCCCCOC[C@@H](COP(=O)([O-])OCC[N+](C)(C)C)OS(C)(=O)=O` [1a′S], the “Performance as compared to ET-18-O—CH3” value in the data set with MALME-3M is 0; in the data set with HOP-62, “+/=”; with SNB-19 it was 0; in the data set on U-251, “=/+”; with SF-295, 0; in the data set with SF-539, 8192. Further, the “Performance as compared to ET-18-O—CH3” value in the data set on SF-268 stood at 0; in the data set with KM12 it was 0; in the data set with HCT-15, 512. For the same compound, in the data set on MALME-3M, the “activity compared to ET-18-OCH3 (in words)” value was “ET-18-OCH3 was more active”. Moreover, the “activity against B16/F10 in mice (in words)” value in the data set on B16/F10 melanoma was “exhibited activity”. Further, the “activity compared to other compounds (in words)” value in the data set on HOP-62 is “better than a few of the other compounds”. The H10 in the data set with whole human blood is 800 µM. Also, in the data set on whole human blood, the H50 is greater than 2000 µM.

For the compound `CCCCCCCCCCCCCCCCCCOCC(COP(=O)([O-])OCC[N+](C)(C)C)OS(C)(=O)=O` (stereo not shown) [Compound 1aR], the “Performance as compared to ET-18-O—CH3” value in the data set with MALME-3M was “<”; with HOP-62 it was “+/=”; in the data set with SNB-19, “=”; in the data set on U-251, “+”; in the data set on SF-295, “=”; in the data set on SF-539, “+”. Also, the “Performance as compared to ET-18-O—CH3” value in the data set on SF-268, in the data set with KM12 and with HCT-15 was “=” in each case. Also, the “activity compared to ET-18-OCH3 (in words)” value in the data set with MALME-3M is on record as “ET-18-OCH3 was more active”. Further, the “activity against B16/F10 in mice (in words)” value with B16/F10 melanoma is “no activity”. Further, the “activity compared to other compounds (in words)” value with HOP-62 is reported as “better than a few of the other compounds”. Moreover, the H10 in the data set with whole human blood was 1000 µM. Moreover, the H50 in the data set on whole human blood is greater than 2000 µM.
